Assay results: patent US9567318B2, “Substituted pyrimidine compounds and uses thereof” (Memorial Sloan-Kettering Cancer Center, priority 2009, dated 2017)

What was measured:
[1] = test system: Kasumi-1 acute myeloid leukemia cells; test: Growth Inhibition Assay (Alamar blue), Kasumi-1; type: cell-based, human; details: Kasumi-1 cells
Experimental: (§1) The IC50 values listed for some of these compounds illustrate the antiproliferative effects of the subject compounds and were obtained using the Growth Inhibition assays described herein.
(§2) Growth Inhibition Assay. Antiproliferative effects of inhibitors were evaluated using the dye Alamar blue. This reagent offers a rapid objective measure of cell viability in cell culture, and it uses the indicator dye resazurin to measure the metabolic capacity of cells, an indicator of cell viability. Briefly, cells were plated on Costar 96-well plates. For attached cells (such as SKBr3, MDA-MB-468, LNCaP, MRCS), 8,000 cells/well were used. For suspension cells (such as MOLM-13, Kasumi-1, OCI-Ly7, PBL), 20,000 cells/well were plated. Cells were allowed to incubate for 24 h at 37° C. before drug treatment. Drugs were added in triplicates at the indicated concentrations, and the plate was incubated for 72 h. Alamar Blue (440 μM) was added, and the plate read 6 h later using the Analyst GT (Fluorescence intensity mode, excitation 530 nm, emission 580 nm, with 560=dichroic mirror). Results were analyzed using the Softmax Pro software. The percentage cell growth inhibition was calculated by comparing fluorescence readings obtained from treated versus control cells, accounting for initial cell population (time zero).

[2] = test system: SKBr3 HER2+ breast cancer cells; test: Growth Inhibition Assay (Alamar blue), SKBr3; type: cell-based, human; details: Homo sapiens, SK-BR-3, 72 h
Experimental: as §1, §2

IC50 ([1]; Homo sapiens, Kasumi 1, 72 h) [µM]	IC50 [2] [µM]	IC50 ([1]; 72 h) [µM]	SMILES
79.7	> 100	–	COc1nc(N2CCOCC2)nc(OC)c1Sc1cccc(N)c1 [PDP2, 3-(4,6-dimethoxy-2-morpholinopyrimidin-5-ylthio)aniline]
11.4	16.5	–	C=CC(=O)Nc1cccc(Sc2c(OC)nc(N3CCOCC3)nc2OC)c1 [PDP3, N-(3-(4,6-dimethoxy-2-morpholinopyrimidin-5-ylthio)phenyl)acrylamide]
> 100	> 100	–	CCC(=O)Nc1cccc(Sc2c(OC)nc(N3CCOCC3)nc2OC)c1 [PDP4, N-(3-(4,6-dimethoxy-2-morpholinopyrimidin-5-ylthio)phenyl)propionamide]
–	18.1	–	C=C(C)C(=O)Nc1cccc(Sc2c(OC)nc(N3CCOCC3)nc2OC)c1 [PDP5, N-(3-(4,6-dimethoxy-2-morpholinopyrimidin-5-ylthio)phenyl)methacrylamide]
–	9.9	–	COc1nc(N2CCOCC2)nc(OC)c1Sc1cccc(NC(=O)C2CC2)c1 [PDP6, N-(3-(4,6-dimethoxy-2-morpholinopyrimidin-5-ylthio)phenyl)cyclopropanecarboxamide]
> 100	–	–	COc1nc(F)nc(OC)c1Sc1nccc(NC(C)=O)n1 [YK62, N-(2-(2-fluoro-4,6-dimethoxypyrimidin-5-ylthio)pyrimidin-4-yl)acetamide]
11.2	–	–	COc1nc(N2CCN(C)CC2)nc(OC)c1Sc1nccc(NC(C)=O)n1 [YK63, N-(2-(4,6-dimethoxy-2-(4-methylpiperazin-1-yl)pyrimidin-5-ylthio)pyrimidin-4-yl)acetamide]
4	–	–	COc1nc(N2CCCCC2)nc(OC)c1Sc1nccc(NC(C)=O)n1 [YK64, N-(2-(4,6-dimethoxy-2-(piperidin-1-yl)pyrimidin-5-ylthio)pyrimidin-4-yl)acetamide]
15.7	–	–	COc1nc(N2CCOCC2)nc(OC)c1Sc1nccc(NC(C)=O)n1 [YK65, N-(2-(4,6-dimethoxy-2-morpholinopyrimidin-5-ylthio)pyrimidin-4-yl)acetamide]
48.3	–	–	COc1nc(N2CCCC2)nc(OC)c1Sc1nccc(NC(C)=O)n1 [YK66, N-(2-(4,6-dimethoxy-2-(pyrrolidin-1-yl)pyrimidin-5-ylthio)pyrimidin-4-yl)acetamide]
93.5	–	–	COc1nc(N2CCN(C)CC2)nc(OC)c1Sc1nccc(N)n1 [YK67, 2-(4,6-dimethoxy-2-(4-methylpiperazin-1-yl)pyrimidin-5-ylthio)pyrimidin-4-amine]
14.7	–	–	COc1nc(N2CCCCC2)nc(OC)c1Sc1nccc(N)n1 [YK68, 2-(4,6-dimethoxy-2-(piperidin-1-yl)pyrimidin-5-ylthio)pyrimidin-4-amine]
54.2	–	–	COc1nc(N2CCOCC2)nc(OC)c1Sc1nccc(N)n1 [YK69, 2-(4,6-dimethoxy-2-morpholinopyrimidin-5-ylthio)pyrimidin-4-amine]
25.2	–	–	COc1nc(N2CCCC2)nc(OC)c1Sc1nccc(N)n1 [YK70, 2-(4,6-dimethoxy-2-(pyrrolidin-1-yl)pyrimidin-5-ylthio)pyrimidin-4-amine]
0.8	1.2	–	C=CC(=O)Nc1ccnc(Sc2c(OC)nc(N3CCN(C)CC3)nc2OC)n1 [YK71, N-(2-(4,6-dimethoxy-2-(4-methylpiperazin-1-yl)pyrimidin-5-ylthio)pyrimidin-4-yl)acrylamide]
2	–	–	C=CC(=O)Nc1ccnc(Sc2c(OC)nc(N3CCCCC3)nc2OC)n1 [YK72, N-(2-(4,6-dimethoxy-2-(piperidin-1-yl)pyrimidin-5-ylthio)pyrimidin-4-yl)acrylamide]
1.9	11.6	–	C=CC(=O)Nc1ccnc(Sc2c(OC)nc(N3CCOCC3)nc2OC)n1 [YK73, N-(2-(4,6-dimethoxy-2-morpholinopyrimidin-5-ylthio)pyrimidin-4-yl)acrylamide]
42.2	4.3	–	C=CC(=O)Nc1ccnc(Sc2c(OC)nc(N3CCCC3)nc2OC)n1 [YK74, N-(2-(4,6-dimethoxy-2-(pyrrolidin-1-yl)pyrimidin-5-ylthio)pyrimidin-4-yl)acrylamide]
–	> 100	–	COc1nc(N2CC[N+](C)([O-])CC2)nc(OC)c1Sc1nccc(NC(C)=O)n1 [YK75, 4-(5-(4-acetamidopyrimidin-2-ylthio)-4,6-dimethoxypyrimidin-2-yl)-1-methylpiperazine 1-oxide]

IC50 ([1]; Homo sapiens, Kasumi 1, 72 h) [µM]	IC50 [2] [µM]	IC50 ([1]; 72 h) [µM]	SMILES
22.5	2.4	–	C=CC(=O)Nc1ccnc(Sc2c(OC)nc(OC)nc2OC)n1 [YK76, N-(2-(2,4,6-trimethoxypyrimidin-5-ylthio)pyrimidin-4-yl)acrylamide]
62.3	79.2	–	CCC(=O)Nc1ccnc(Sc2c(OC)nc(OC)nc2OC)n1 [YK77, N-(2-(2,4,6-trimethoxypyrimidin-5-ylthio)pyrimidin-4-yl)propionamide]
> 100	31.1	–	C=CC(=O)Nc1ccnc(Sc2c(OC)nc(N3CC[N+](C)([O-])CC3)nc2OC)n1 [YK80, 4-(5-(4-acrylamidopyrimidin-2-ylthio)-4,6-dimethoxypyrimidin-2-yl)-1-methylpiperazine 1-oxide]
4.8	1.8	–	C=CC(=O)Nc1ccnc(Sc2c(C)nc(N3CCN(C)CC3)nc2C)n1 [YK85, N-(2-(4,6-dimethyl-2-(4-methylpiperazin-1-yl)pyrimidin-5-ylthio)pyrimidin-4-yl)acrylamide]
26.2	44.4	–	CCC(=O)Nc1ccnc(Sc2c(C)nc(N3CCN(C)CC3)nc2C)n1 [YK86, N-(2-(4,6-dimethyl-2-(4-methylpiperazin-1-yl)pyrimidin-5-ylthio)pyrimidin-4-yl)propionamide]
16	–	–	C/C=C/C(=O)Nc1ccnc(Sc2c(C)nc(N3CCN(C)CC3)nc2C)n1 [YK87, (E)-N-(2-(4,6-dimethyl-2-(4-methylpiperazin-1-yl)pyrimidin-5-ylthio)pyrimidin-4-yl)but-2-enamide]
13.1	16.7	–	C=C(C)C(=O)Nc1ccnc(Sc2c(C)nc(N3CCN(C)CC3)nc2C)n1 [YK88, N-(2-(4,6-dimethyl-2-(4-methylpiperazin-1-yl)pyrimidin-5-ylthio)pyrimidin-4-yl)methacrylamide]
12	6.8	7.5	Cc1nc(N2CCN(C)CC2)nc(C)c1Sc1nccc(NC(=O)c2ccco2)n1 [YK89, N-(2-(4,6-dimethyl-2-(4-methylpiperazin-1-yl)pyrimidin-5-ylthio)pyrimidin-4-yl)furan-2-carboxamide]
20.1	25.8	27.1	Cc1nc(N2CCN(C)CC2)nc(C)c1Sc1nccc(NC(=O)C2CC2)n1 [YK90, N-(2-(4,6-dimethyl-2-(4-methylpiperazin-1-yl)pyrimidin-5-ylthio)pyrimidin-4-yl)cyclopropanecarboxamide]
> 100	99.5	–	CCC(=O)Nc1ccnc(Sc2c(OC)nc(N3CCCC3)nc2OC)n1 [YK106, N-(2-(4,6-dimethoxy-2-(pyrrolidin-1-yl)pyrimidin-5-ylthio)pyrimidin-4-yl)propionamide]
9.5	–	–	C=C(C)C(=O)Nc1ccnc(Sc2c(OC)nc(N3CCCC3)nc2OC)n1 [YK108, N-(2-(4,6-dimethoxy-2-(pyrrolidin-1-yl)pyrimidin-5-ylthio)pyrimidin-4-yl)methacrylamide]
> 100	> 100	–	COc1nc(N2CCCC2)nc(OC)c1Sc1nccc(NC(=O)C2CC2)n1 [YK110, N-(2-(4,6-dimethoxy-2-(pyrrolidin-1-yl)pyrimidin-5-ylthio)pyrimidin-4-yl)cyclopropanecarboxamide]
6.2	14.4	–	C=CC(=O)Nc1ccnc(Sc2c(C)nc(N3CCOCC3)nc2C)n1 [YK117, N-(2-(4,6-dimethyl-2-morpholinopyrimidin-5-ylthio)pyrimidin-4-yl)acrylamide]
> 100	> 100	–	CCC(=O)Nc1ccnc(Sc2c(C)nc(N3CCOCC3)nc2C)n1 [YK118, N-(2-(4,6-dimethyl-2-morpholinopyrimidin-5-ylthio)pyrimidin-4-yl)propionamide]
58.1	> 100	–	COCC(=O)Nc1ccnc(Sc2c(C)nc(N3CCOCC3)nc2C)n1 [YK123, N-(2-(4,6-dimethyl-2-morpholinopyrimidin-5-ylthio)pyrimidin-4-yl)-2-methoxyacetamide]
–	18.3	–	CCC(=O)Nc1cccc(Sc2c(OC)nc(N3CCN(C)CC3)nc2OC)c1 [YK130, N-(3-(4,6-dimethoxy-2-(4-methylpiperazin-1-yl)pyrimidin-5-ylthio)phenyl)propionamide]
–	38.9	–	CCC(=O)Nc1cccc(Sc2c(OC)nc(N3CCN(CCOCCOCCOCCO)CC3)nc2OC)c1 [YK141, N-(3-(2-(4-(2-(2-(2-(2-hydroxyethoxy)ethoxy)ethoxy)ethyl)piperazin-1-yl)-4,6-dimethoxypyrimidin-5-ylthio)phenyl)propionamide]
–	47.9	–	CCC(=O)Nc1cccc(Sc2c(OC)nc(N3CCN(CCOCCOCCOCCOC(=O)CCCCC4SCC5NC(=O)NC54)CC3)nc2OC)c1 (stereo not drawn) [YK142, 2-(2-(2-(2-(4-(4,6-dimethoxy-5-(3-propionamidophenylthio)pyrimidin-2-yl)piperazin-1-yl)ethoxy)ethoxy)ethoxy)ethyl 5-(2-oxohexahydro-1H-thieno[3,4-d]imidazol-4-yl)pentanoate]
8.8	–	9	CCC(=O)Nc1cccc(Sc2c(C)nc(N3CCNCC3)nc2C)c1 [YK146, N-(3-(4,6-dimethyl-2-(piperazin-1-yl)pyrimidin-5-ylthio)phenyl)propionamide]
